Data: US20030134303A1, “Adenine nucleotide-binding protein-directed probes, and methods of their synthesis and use” (ActivX Biosciences, Inc,, priority 2001, published 2003)

How the values were obtained:
Type in all cases: binding
[1] = target: T1, epidermal growth factor receptor (EGFR) (Homo sapiens, UniProt P00533); assay: EGF receptor tyrosine kinase labeling in A431 plasma membranes, MS identification of labeled peptide; conditions: probe 20 μM, 3 hours, solubilized A431 plasma membranes, anti-TAMRA capture, trypsin
T1 construct: Plasma membranes containing the epidermal growth factor receptor (EGFR) were prepared from the A431 human epidermoid cancer cell line; endogenous in cells; host or cells: A431 human epidermoid cancer cells (plasma membrane preparation, Triton X-100 solubilized)
Procedure: Plasma membranes containing the epidermal growth factor receptor (EGFR) were prepared from the A431 human epidermoid cancer cell line. Approximately 1×10^8 A431 cells were resuspended in 10 mls 20 mM HEPES, pH 7.5, 0.14M NaCl, 5 mM KCl, 0.1 mM EDTA, 0.1% glucose, and 0.035% sodium bicarbonate. The cells were lysed by Dounce homogenization, and the lysate was diluted into 80 mls of 20 mM sodium borate, pH 10.2, 0.1 mM EDTA. This mixture was placed on a rocker at 4° C. for 10 minutes, and the membranes from the mixture were isolated by centrifugation at 16,000 rpm for 30 minutes in a Beckman JA17 rotor. The plasma membranes were further purified by centrifugation over a 40%/30% sucrose cushion at 30000 rpm for 60 minutes in a Beckman MLS 50 swinging bucket rotor. The plasma membranes were collected at the aqueous—sucrose interface, and solubilized in buffer containing 20 mM HEPES, pH 7.5, 50 mM NaCl, 20 mM MgCl2, 0.05 mg/ml BSA, and 0.1% Triton-X-100.
Solubilized A431 plasma membranes (˜0.5 mg total protein) were incubated with (5)(20 μM) for 3 hours. […]
The proteins in this band were trypsinized, and the tryptic peptides were extracted. […] After elution from the beads the captured fragment was analyzed by mass spectroscopy (MS) to identify the peptide sequence: […]

[2] = target: T2, GST-fusion protein of the insulin receptor kinase domain (GST-InsRK) (Homo sapiens, UniProt P06213)
T2 construct: GST-fusion protein of the insulin receptor kinase domain (GST-InsRK)
T2 sequence (P06213 1023-1298 limits assumed): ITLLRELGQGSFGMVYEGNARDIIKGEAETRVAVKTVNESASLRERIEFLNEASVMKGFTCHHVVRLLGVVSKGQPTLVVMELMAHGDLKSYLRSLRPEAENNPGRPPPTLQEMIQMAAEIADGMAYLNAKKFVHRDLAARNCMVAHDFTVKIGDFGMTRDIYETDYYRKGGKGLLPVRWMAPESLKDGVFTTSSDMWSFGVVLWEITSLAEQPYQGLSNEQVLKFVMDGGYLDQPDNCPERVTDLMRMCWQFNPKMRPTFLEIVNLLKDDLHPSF

[3] = target: EGF receptor tyrosine kinase (Homo sapiens, UniProt P00533); assay: Effect of inhibitors on EGF receptor tyrosine kinase labeling by ANBP (5) in A431 plasma membranes; conditions: inhibitor 50 μM, 5 minutes pretreatment, then AX0231 20 μM for 60 minutes; compared with 90% by the EGF inhibitor at 5 μM
Procedure: After 60 minutes, the reaction was quenched by the addition of gel sample buffer. The samples were electrophoresed on a 10% SDS-PAGE gel. The gel was then scanned on a FMBIO2 gel scanner, and the intensity of labeling of the EGFR was quantitated by ImageAnalysis.

Row | inhibition of probe labeling of EGFR [3] | Compound | site of labeling in EGFR (probe-labeled tryptic peptide, K*) [1] | labeling of GST-InsRK by probe [2]
1 |  | 5′-FSB-amido-2′(3′)-(2-TAMRA-amidoethylcarbamoyl)adenosine [Compound 5] | located within the active site of the protein | labeled
2 | significantly less inhibition | COC(=O)c1ccc(NCc2cc(O)ccc2O)cc1 [AG957] |  | 
